As usually defined, the IC50 is the concentration needed to halve the response being measured. High values mean weaker potency, low ones greater potency.

Sequence of human TrkA receptor (P04629 33-796): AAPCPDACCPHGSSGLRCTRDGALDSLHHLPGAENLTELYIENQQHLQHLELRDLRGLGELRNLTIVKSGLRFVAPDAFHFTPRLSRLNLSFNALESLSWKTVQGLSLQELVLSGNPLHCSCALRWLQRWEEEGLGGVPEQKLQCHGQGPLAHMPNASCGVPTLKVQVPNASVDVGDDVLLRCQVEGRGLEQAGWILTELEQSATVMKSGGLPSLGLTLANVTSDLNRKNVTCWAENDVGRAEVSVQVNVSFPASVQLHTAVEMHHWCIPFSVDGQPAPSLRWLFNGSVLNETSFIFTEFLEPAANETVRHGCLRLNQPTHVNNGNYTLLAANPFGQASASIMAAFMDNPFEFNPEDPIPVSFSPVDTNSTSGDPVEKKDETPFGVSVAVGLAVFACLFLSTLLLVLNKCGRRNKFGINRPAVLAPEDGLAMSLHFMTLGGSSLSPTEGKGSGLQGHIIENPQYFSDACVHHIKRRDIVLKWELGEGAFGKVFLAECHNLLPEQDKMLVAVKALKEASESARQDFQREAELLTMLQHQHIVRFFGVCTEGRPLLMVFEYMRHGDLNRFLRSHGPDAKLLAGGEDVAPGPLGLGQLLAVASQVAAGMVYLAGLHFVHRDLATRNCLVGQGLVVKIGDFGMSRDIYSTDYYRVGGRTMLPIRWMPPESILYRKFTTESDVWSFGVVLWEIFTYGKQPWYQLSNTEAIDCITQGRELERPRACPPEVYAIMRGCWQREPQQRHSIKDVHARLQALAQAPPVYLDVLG

This assay concerns the target human TrkA receptor (Homo sapiens (Human), UniProt P04629). Description: DiscoverX PathHunter TrkA functional assay. In kind it is cell-based. Particulars: U2OS cells expressing human TrkA-ProLink, Shc1-EA and p75NTR; compound 1 h, then NGF at ~80% of maximal response for 3 h; luminescence.
Experimental: TrkA functional activity was measured using a DiscoverX PathHunter assay. In this assay, U2OS cells express the human TrkA receptor as a fusion with the weakly complementing fragment of B-galactosidase, which DiscoverX calls “Prolink (PK)”; additionally, Shc1 is fused with a larger fragment, which is called “Enzyme Acceptor (EA)”. Activation of the TrkA receptor, upon NGF addition, results in the kinase domain being phosphorylated, resulting in subsequent recruitment of Shc1-EA protein. That recruitment results in an active B-galactosidase enzyme that is detected by addition of a chemiluminescent substrate. The human p75^NTR protein was also expressed as a co-receptor for NGF.
All reagents were purchased from DiscoverX, except for the receptor agonists (NGF, BDNF, NT3) which were purchased from Peprotech. Cells were expanded and frozen into cryovials, and stored in the vapor phase of liquid nitrogen, and thawed immediately before use. Thawed cells were added to a 384-well plate at 7500 cells/well, and allowed to incubate overnight. Compound at various concentrations was added the following morning and allowed to incubate on cells for 1 h. Then, NGF was added at a concentration sufficient to elicit ˜80% of a maximal response and allowed to incubate for 3 h at ambient temperature. DiscoverX PathHunter detection reagent was then added and the plate was further incubated for 1 h in the dark. The plate was then read via luminescence on the Perkin Elmer Envision.
In the case of `Cn1ccc(-c2cc(C(=O)Nc3cc(Cn4cnnn4)nn3-c3ccccc3)ccc2C(F)(F)F)n1` [Compound 66, 3-(1-methyl-1H-pyrazol-3-yl)-N-[1-phenyl-3-(1H-tetrazol-1-ylmethyl)-1H-pyrazol-5-yl]-4-(trifluoromethyl)benzamide], the concentration for half-maximal inhibition (IC50) is 2.3 nM.

`NC(=O)c1ccnc(-c2cc(NC(=O)c3cc(-c4ncccn4)c(C(F)(F)F)cc3F)n(-c3ccc(F)cc3)n2)n1` [Compound 84, 2-(5-(2-fluoro-5-(pyrimidin-2-yl)-4-(trifluoromethyl)benzamido)-1-(4-fluorophenyl)-1H-pyrazol-3-yl)pyrimidine-4-carboxamide]: the 50% inhibitory concentration (IC50) was 4.9 nM. The result for `NC(=O)OCc1cc(NC(=O)c2cc(-c3ncccn3)c(C(F)(F)F)cc2F)n(-c2ccc(F)cc2)n1` [Compound 110, (5-(2-fluoro-5-(pyrimidin-2-yl)-4-(trifluoromethyl)benzamido)-1-(4-fluorophenyl)-1H-pyrazol-3-yl)methyl carbamate] reads 7 nM. `Cn1ccc(-c2cc(C(=O)Nc3cn(CCO)nc3-c3ccccc3)c(F)cc2C(F)(F)F)n1` [Compound 109, 2-fluoro-N-(1-(2-hydroxyethyl)-3-phenyl-1H-pyrazol-4-yl)-5-(1-methyl-1H-pyrazol-3-yl)-4-(trifluoromethyl)benzamide] registered a half-maximal inhibitory concentration (IC50) of 16 nM. This IC50 lies about 2.3-fold higher than the previous one.

`Cc1c(Cl)cc(C(=O)Nc2cc(-c3ccncc3)nn2-c2ccccc2)cc1Cl` [Compound 23, 3,5-dichloro-4-methyl-N-(1-phenyl-3-pyridin-4-yl-1H-pyrazol-5-yl)benzamide] showed a half-maximal inhibitory concentration (IC50) of 670 nM. The result for `Cc1cc(-n2nc(CC(=O)Nc3ccccn3)cc2NC(=O)c2ccc(C(F)(F)F)c(-c3ccn(C)n3)c2)[nH]n1` [Compound 22, N-{5′-methyl-3-[2-oxo-2-(pyridin-2-ylamino)ethyl]-2′H-1,3′-bipyrazol-5-yl}-3-(1-methyl-1H-pyrazol-3-yl)-4-(trifluoromethyl)benzamide] reads 5.6 nM.

Consider `Cn1ccc(-c2cc(C(=O)Nc3cn[nH]c3-c3ccccc3)ccc2C(F)(F)F)n1` [Compound 18, 3-(1-methyl-1H-pyrazol-3-yl)-N-(5-phenyl-1H-pyrazol-4-yl)-4-(trifluoromethyl)benzamide], for which the half-maximal inhibitory concentration (IC50) stood at 18 nM. Regarding `Cn1ccc(-c2cc(C(=O)Nc3cc(Cn4ncnn4)nn3-c3ccccc3)ccc2C(F)(F)F)n1` [Compound 67, 3-(1-methyl-1H-pyrazol-3-yl)-N-[1-phenyl-3-(2H-tetrazol-2-ylmethyl)-1H-pyrazol-5-yl]-4-(trifluoromethyl)benzamide], half-maximal inhibition (IC50) required 3.7 nM. Take `CNC(=O)c1cc(NC(=O)c2cc(-c3ncccn3)c(C(F)(F)F)cc2F)n(-c2ccc(F)cc2)n1` [Compound 86, 5-(2-fluoro-5-(pyrimidin-2-yl)-4-(trifluoromethyl)benzamido)-1-(4-fluorophenyl)-N-methyl-1H-pyrazole-3-carboxamide]: the half-inhibitory concentration (IC50) came to 7 nM. Consider `Cc1cc(-n2nc(CNCCO)cc2NC(=O)c2ccc(C(F)(F)F)c(-c3ccn(C)n3)c2)[nH]n1` [Compound 68, N-(3-{[(2-hydroxyethyl)amino]methyl}-5′-methyl-2′H-1,3′-bipyrazol-5-yl)-3-(1-methyl-1H-pyrazol-3-yl)-4-(trifluoromethyl)benzamide], for which inhibition was half-maximal at 240 nM (IC50). The result for `O=C(Nc1sc(-c2cnn(CCO)c2)nc1-c1ccccc1)c1cc(-c2ncccn2)c(C(F)(F)F)cc1F` [Compound 106, 2-fluoro-N-(2-(1-(2-hydroxyethyl)-1H-pyrazol-4-yl)-4-phenylthiazol-5-yl)-5-(pyrimidin-2-yl)-4-(trifluoromethyl)benzamide] reads 6.7 nM; that for `Cn1ccc(-c2cc(C(=O)Nc3cc(Cc4ccc(=O)[nH]n4)nn3-c3ccc(F)cc3)c(F)cc2C(F)(F)F)n1` [Compound 105, 2-fluoro-N-(1-(4-fluorophenyl)-3-((6-oxo-1,6-dihydropyridazin-3-yl)methyl)-1H-pyrazol-5-yl)-5-(1-methyl-1H-pyrazol-3-yl)-4-(trifluoromethyl)benzamide], 0.98 nM; that for `Cc1nc(NC(=O)c2ccc(C(F)(F)F)c(-c3ccn(C)n3)c2)c(-c2ccccc2)s1` [Compound 72, N-(2-methyl-5-phenyl-1,3-thiazol-4-yl)-3-(1-methyl-1H-pyrazol-3-yl)-4-(trifluoromethyl)benzamide], 62 nM. The result for `Cc1cccc(-c2cc(C(=O)Nc3cc(-c4ccncc4)nn3-c3ccc(F)cc3)ccc2C(F)(F)F)n1` [Compound 30, N-[1-(4-fluorophenyl)-3-pyridin-4-yl-1H-pyrazol-5-yl]-3-(6-methylpyridin-2-yl)-4-(trifluoromethyl)benzamide] reads 5.5 nM; that for `Cn1ccc(-c2cc(C(=O)Nc3cc(Cc4nnc(N)o4)nn3-c3ccc(F)cc3)ccc2C(F)(F)F)n1` [Compound 92, N-(3-((5-amino-1,3,4-oxadiazol-2-yl)methyl)-1-(4-fluorophenyl)-1H-pyrazol-5-yl)-3-(1-methyl-1H-pyrazol-3-yl)-4-(trifluoromethyl)benzamide], 1.3 nM. On to `Cn1ccc(-c2cc(C(=O)Nc3cc(Cc4nnn(CCO)n4)nn3-c3ccc(F)cc3)ccc2C(F)(F)F)n1` [Compound 77, N-[1-(4-fluorophenyl)-3-{[2-(2-hydroxyethyl)-2H-tetrazol-5-yl]methyl}-1H-pyrazol-5-yl]-3-(1-methyl-1H-pyrazol-3-yl)-4-(trifluoromethyl)benzamide], for which it took 14 nM to reach half-maximal inhibition (IC50).

With `Cc1cc(NC(=O)c2ccc(OC(F)(F)F)c(-c3ccn(C)n3)c2)n(-c2ccc(F)cc2)n1` [Compound 73, N-[1-(4-fluorophenyl)-3-methyl-1H-pyrazol-5-yl]-3-(1-methyl-1H-pyrazol-3-yl)-4-(trifluoromethoxy)benzamide], the concentration for half-maximal inhibition (IC50) was found to be 57 nM. The result for `O=C(Nc1cc(-c2ccncc2)nn1-c1ccccc1)c1ccc(C(F)(F)F)c(-n2cccn2)c1` [Compound 24, N-(1-phenyl-3-pyridin-4-yl-1H-pyrazol-5-yl)-3-(1H-pyrazol-1-yl)-4-(trifluoromethyl)benzamide] reads 21 nM; that for `Cc1cc(NC(=O)c2cc(-c3ccn(C)n3)c(C(F)(F)F)cc2Cl)n(-c2cc(C)[nH]n2)n1` [Compound 48, 2-chloro-N-(3,5′-dimethyl-1′H-1,3′-bipyrazol-5-yl)-5-(1-methyl-1H-pyrazol-3-yl)-4-(trifluoromethyl)benzamide], 0.82 nM; that for `Cc1cccnc1-c1cc(C(=O)Nc2cc(-c3ccncc3)nn2-c2ccc(F)cc2)ccc1C(F)(F)F` [Compound 31, N-[1-(4-fluorophenyl)-3-pyridin-4-yl-1H-pyrazol-5-yl]-3-(3-methylpyridin-2-yl)-4-(trifluoromethyl)benzamide], 860 nM. The result for `Cc1cc(-n2nc(C(=O)N(C)C)cc2NC(=O)c2ccc(C(F)(F)F)c(-c3ccn(C)n3)c2)[nH]n1` [Compound 7, N,N,5′-trimethyl-5-({[3-(1-methyl-1H-pyrazol-3-yl)-4-(trifluoromethyl)phenyl]carbonyl}amino)-2′H-1,3′-bipyrazole-3-carboxamide] reads 32 nM. The result for `O=C(Nc1cc(-c2ccc(=O)[nH]n2)nn1-c1ccccc1)c1ccc(C(F)(F)F)c(-c2ccn(CC(F)(F)F)n2)c1` [Compound 70, N-[3-(6-oxo-1,6-dihydropyridazin-3-yl)-1-phenyl-1H-pyrazol-5-yl]-3-[1-(2,2,2-trifluoroethyl)-1H-pyrazol-3-yl]-4-(trifluoromethyl)benzamide] reads 390 nM; that for `Cc1cc(-c2nn(C)cc2NC(=O)c2ccc(C(F)(F)F)c(-c3ccn(C)n3)c2)[nH]n1` [Compound 74, N-(1,5′-dimethyl-1H,2′H-3,3′-bipyrazol-4-yl)-3-(1-methyl-1H-pyrazol-3-yl)-4-(trifluoromethyl)benzamide], 180 nM; that for `Cc1coc(-c2cc(C(=O)Nc3cc(-c4cn[nH]c4)nn3-c3cc(C)[nH]n3)ccc2C(F)(F)F)n1` [Compound 61, 3-(4-methyl-1,3-oxazol-2-yl)-N-(5-methyl-1H,1″H-3,1′:3′,4″-terpyrazol-5′-yl)-4-(trifluoromethyl)benzamide], 3.1 nM. Regarding `Cc1nc(-c2cc(C(=O)Nc3cc(-c4ccncc4)nn3-c3ccc(F)cc3)ccc2C(F)(F)F)no1` [Compound 29, N-[1-(4-fluorophenyl)-3-pyridin-4-yl-1H-pyrazol-5-yl]-3-(5-methyl-1,2,4-oxadiazol-3-yl)-4-(trifluoromethyl)benzamide], the IC50 is 530 nM. Against the preceding compound, the IC50 is about 170-fold higher. The result for `Cn1ccc(-c2cc(C(=O)Nc3cnoc3-c3ccccc3)ccc2C(F)(F)F)n1` [Compound 37, 3-(1-methyl-1H-pyrazol-3-yl)-N-(5-phenylisoxazol-4-yl)-4-(trifluoromethyl)benzamide] reads 180 nM; that for `Cc1nc(-c2ccccc2)c(NC(=O)c2ccc(C(F)(F)F)c(-c3ccn(C)n3)c2)n1C` [Compound 14, N-(1,2-dimethyl-4-phenyl-1H-imidazol-5-yl)-3-(1-methyl-1H-pyrazol-3-yl)-4-(trifluoromethyl)benzamide], 20 nM. The result for `Cn1nnnc1Cc1cc(NC(=O)c2cc(-c3ncccn3)c(C(F)(F)F)cc2F)n(-c2ccc(F)cc2)n1` [Compound 104, 2-fluoro-N-(1-(4-fluorophenyl)-3-((1-methyl-1H-tetrazol-5-yl)methyl)-1H-pyrazol-5-yl)-5-(pyrimidin-2-yl)-4-(trifluoromethyl)benzamide] reads 1.6 nM; that for `Cn1ccc(-c2cc(C(=O)Nc3cn(C)nc3-c3ccccc3)ccc2C(F)(F)F)n1` [Compound 43, N-(1-methyl-3-phenyl-1H-pyrazol-4-yl)-3-(1-methyl-1H-pyrazol-3-yl)-4-(trifluoromethyl)benzamide], 11 nM. The result for `Cn1ccc(-c2cc(C(=O)Nc3cc(-c4ncccn4)nn3-c3ccc(F)cc3)ccc2C(F)(F)F)n1` [Compound 60, N-[1-(4-fluorophenyl)-3-pyrimidin-2-yl-1H-pyrazol-5-yl]-3-(1-methyl-1H-pyrazol-3-yl)-4-(trifluoromethyl)benzamide] reads 3 nM.

The values are drawn from patent US9914736B2, “TrKA kinase inhibitors, compositions and methods thereof” (Merck Sharp & Dohme Corp., priority 2014, dated 2018).
